Experimental data reported in patent publication US20220401514A1, “ANTIMICROBIAL, BACTERIOPHAGE-DERIVED POLYPEPTIDES AND THEIR USE AGAINST GRAM-NEGATIVE AND ACID-FAST BACTERIA” (CONTRAFECT CORPORATION, priority 2019, published 2022).

Experiments:
Type in all cases: cell-based
[1] = tested on: Gram-negative with varying susceptibility to imipenem and relebactam; assay: MIC against CDC Imipenem/Relebactam panel (n = 28)
Method: MIC values were determined using the methodology described above, i.e., the standard broth microdilution reference method defined by CLSI.
See wwwn.cdc.gov/ARIsolateBank/Panel/PanelDetail?ID=10.

[2] = tested on: Pseudomonas aeruginosa isolates; assay: MIC against CDC Pseudomonas aeruginosa panel (n = 55)
Salmonella typhimurium = assay: MIC against Salmonella typhimurium; conditions: Salmonella typhimurium

Sequence: MRLKMARRRYRLPRRRSRRLFSRTALRMHPRNRLRRIMRGGIRF [Chp2]
- MIC ([1]; Bank No. 0516, Pseudomonas aeruginosa): 0.5 µg/mL
- MIC ([1]; Bank No. 0517, Serratia marcescens): > 8 µg/mL
- MIC ([1]; Bank No. 0518, Pseudomonas aeruginosa): 1 µg/mL
- MIC ([1]; Bank No. 0519, Morganella morganii): ng
- MIC ([1]; Bank No. 0520, Serratia marcescens): > 8 µg/mL
- MIC ([1]; Bank No. 0521, Serratia marcescens): > 8 µg/mL
- MIC ([1]; Bank No. 0522, Klebsiella pneumoniae): 0.5 µg/mL
- MIC ([1]; Bank No. 0523, Klebsiella pneumoniae): 0.5 µg/mL
- MIC ([1]; Bank No. 0524, Klebsiella pneumoniae): 1 µg/mL
- MIC ([1]; Bank No. 0525, Klebsiella pneumoniae): 1 µg/mL
- MIC ([1]; Bank No. 0526, Pseudomonas aeruginosa): 2 µg/mL
- MIC ([1]; Bank No. 0527, Pseudomonas aeruginosa): 1 µg/mL
- MIC ([1]; Bank No. 0528, Pseudomonas aeruginosa): 1 µg/mL
- MIC ([1]; Bank No. 0529, Pseudomonas aeruginosa): 0.5 µg/mL
- MIC50 ([1]; Imipenem/Relebactam panel): 0.5 µg/mL
- MIC90 ([1]; Imipenem/Relebactam panel): 1 µg/mL
- MIC ([2]; CDC Antibiotic-Resistant Bank No. 0229): 0.5 µg/mL
- MIC ([2]; CDC Antibiotic-Resistant Bank No. 0230): 0.5 µg/mL
- MIC ([2]; CDC Antibiotic-Resistant Bank No. 0231): 0.5 µg/mL
- MIC ([2]; CDC Antibiotic-Resistant Bank No. 0232): 0.5 µg/mL
- MIC ([2]; CDC Antibiotic-Resistant Bank No. 0233): 0.5 µg/mL
- MIC ([2]; CDC Antibiotic-Resistant Bank No. 0234): 0.5 µg/mL
- MIC ([2]; CDC Antibiotic-Resistant Bank No. 0235): 0.5 µg/mL
- MIC ([2]; CDC Antibiotic-Resistant Bank No. 0236): 0.5 µg/mL
- MIC ([2]; CDC Antibiotic-Resistant Bank No. 0237): 0.5 µg/mL
- MIC ([2]; CDC Antibiotic-Resistant Bank No. 0238): 0.5 µg/mL
- MIC ([2]; CDC Antibiotic-Resistant Bank No. 0239): 1 µg/mL
- MIC ([2]; CDC Antibiotic-Resistant Bank No. 0240): 1 µg/mL
- MIC ([2]; CDC Antibiotic-Resistant Bank No. 0241): 1 µg/mL
- MIC ([2]; CDC Antibiotic-Resistant Bank No. 0242): 0.5 µg/mL
- MIC ([2]; CDC Antibiotic-Resistant Bank No. 0243): 0.5 µg/mL
- MIC ([2]; CDC Antibiotic-Resistant Bank No. 0244): 1 µg/mL
- MIC ([2]; CDC Antibiotic-Resistant Bank No. 0245): 0.5 µg/mL
- MIC ([2]; CDC Antibiotic-Resistant Bank No. 0246): 1 µg/mL
- MIC ([2]; CDC Antibiotic-Resistant Bank No. 0247): 1 µg/mL
- MIC ([2]; CDC Antibiotic-Resistant Bank No. 0248): 1 µg/mL
- MIC ([2]; CDC Antibiotic-Resistant Bank No. 0249): 1 µg/mL
- MIC ([2]; CDC Antibiotic-Resistant Bank No. 0250): 1 µg/mL
- MIC ([2]; CDC Antibiotic-Resistant Bank No. 0251): 1 µg/mL
- MIC ([2]; CDC Antibiotic-Resistant Bank No. 0252): 1 µg/mL
- MIC ([2]; CDC Antibiotic-Resistant Bank No. 0253): 1 µg/mL
- MIC ([2]; CDC Antibiotic-Resistant Bank No. 0254): 1 µg/mL
- MIC ([2]; CDC Antibiotic-Resistant Bank No. 0255): 1 µg/mL
- MIC ([2]; CDC Antibiotic-Resistant Bank No. 0256): 1 µg/mL
- MIC ([2]; CDC Antibiotic-Resistant Bank No. 0257): 1 µg/mL
- MIC ([2]; CDC Antibiotic-Resistant Bank No. 0258): 2 µg/mL
- MIC ([2]; CDC Antibiotic-Resistant Bank No. 0259): 1 µg/mL
- MIC ([2]; CDC Antibiotic-Resistant Bank No. 0260): 0.5 µg/mL
- MIC ([2]; CDC Antibiotic-Resistant Bank No. 0261): 1 µg/mL
- MIC ([2]; CDC Antibiotic-Resistant Bank No. 0262): 1 µg/mL
- MIC ([2]; CDC Antibiotic-Resistant Bank No. 0263): 1 µg/mL
- MIC ([2]; CDC Antibiotic-Resistant Bank No. 0264): 1 µg/mL
- MIC ([2]; CDC Antibiotic-Resistant Bank No. 0265): 1 µg/mL
- MIC ([2]; CDC Antibiotic-Resistant Bank No. 0266): 1 µg/mL
- MIC ([2]; CDC Antibiotic-Resistant Bank No. 0267): 1 µg/mL
- MIC ([2]; CDC Antibiotic-Resistant Bank No. 0268): 1 µg/mL
- MIC ([2]; CDC Antibiotic-Resistant Bank No. 0269): 1 µg/mL
- MIC ([2]; CDC Antibiotic-Resistant Bank No. 0270): 0.5 µg/mL
- MIC ([2]; CDC Antibiotic-Resistant Bank No. 0271): 1 µg/mL
- MIC ([2]; CDC Antibiotic-Resistant Bank No. 0272): 1 µg/mL
- MIC ([2]; CDC Antibiotic-Resistant Bank No. 0763): 1 µg/mL
- MIC ([2]; CDC Antibiotic-Resistant Bank No. 0764): 1 µg/mL
- MIC ([2]; CDC Antibiotic-Resistant Bank No. 0765): 1 µg/mL
- MIC ([2]; CDC Antibiotic-Resistant Bank No. 0766): 1 µg/mL
- MIC ([2]; CDC Antibiotic-Resistant Bank No. 0767): 1 µg/mL
- MIC ([2]; CDC Antibiotic-Resistant Bank No. 0768): 0.5 µg/mL
- MIC ([2]; CDC Antibiotic-Resistant Bank No. 0769): 1 µg/mL
- MIC ([2]; CDC Antibiotic-Resistant Bank No. 0770): 1 µg/mL
- MIC ([2]; CDC Antibiotic-Resistant Bank No. 0771): 1 µg/mL
- MIC ([2]; CDC Antibiotic-Resistant Bank No. 0772): 1 µg/mL
- MIC ([2]; CDC Antibiotic-Resistant Bank No. 0773): 1 µg/mL
- MIC50 ([2]; Pseudomonas aeruginosa panel): 1 µg/mL
- MIC90 ([2]; Pseudomonas aeruginosa panel): 1 µg/mL
- MIC (Salmonella typhimurium): 2 µg/mL
